Bridges are numbered along the chain shown (N, C = ends). Where no end group is shown, it is not given here. [ ]: non-standard residue; d: D form. Dhb = C/C=C(\N)C(=O)O; Dha = C=C(N)C(=O)O
Assays:
[1] = system: Aspergillus niger CICC 2124; test: Minimal inhibitory concentration (MIC); type: cell-based; conditions: twofold serial dilution, 96-well plate, 24 h at 30°C, OD600; highest conc. not given in μg/mL (stock 1,024 IU/mL)
Experimental: (§1) The minimal inhibitory concentration (MIC) of plantaricin YKX toward indicator strains was measured according to the [Clinical and Laboratory Standards Institute (2012)]. Indicator strains in the mid-logarithmic growth phase were adjusted to the OD600 of 0.5 and diluted 100-fold with appropriate media. First, the plantaricin YKX solution (1,024 IU/mL) was twofold serially diluted with distilled water. Next, 100 μL each indicator strain suspension and aliquots of plantaricin YKX solution were incubated [1:1 (v/v) ratio] in a 96-well plate for 24 h at 45°C with Alicyclobacillus spp. as indicator strain and at 30°C for other indicator strains listed in Table 1. The efficacy of nisin (> 90% pure, J & K Chemical Technology) was also determined. As a control, distilled water was added to the indicator strains suspensions. Following incubation, the MICs were determined by measuring the OD600 using a microplate reader (SpectraMax 190, Molecular Devices, CA, United States).

[2] = system: Candida albicans CICC 1965; test: Minimal inhibitory concentration (MIC); type: cell-based; conditions: twofold serial dilution, 96-well plate, 24 h at 30°C, OD600; highest conc. not given in μg/mL (stock 1,024 IU/mL)
Experimental: as §1

[3] = system: Enterobacter cloacae CICC 21539; test: Minimal inhibitory concentration (MIC); type: cell-based; conditions: twofold serial dilution, 96-well plate, 24 h at 30°C, OD600; highest conc. not given in μg/mL (stock 1,024 IU/mL)
Experimental: as §1

[4] = system: Pseudomonas aeruginosa CICC 21636; test: Minimal inhibitory concentration (MIC); type: cell-based; conditions: twofold serial dilution, 96-well plate, 24 h at 30°C, OD600; highest conc. not given in μg/mL (stock 1,024 IU/mL)
Experimental: as §1

[5] = system: Saccharomyces cerevisiae CICC 1002; test: Minimal inhibitory concentration (MIC); type: cell-based; conditions: twofold serial dilution, 96-well plate, 24 h at 30°C, OD600; highest conc. not given in μg/mL (stock 1,024 IU/mL)
Experimental: as §1

[6] = system: Salmonella paratyphi β CICC 10437; test: Minimal inhibitory concentration (MIC); type: cell-based; conditions: twofold serial dilution, 96-well plate, 24 h at 30°C, OD600; highest conc. not given in μg/mL (stock 1,024 IU/mL)
Experimental: as §1

[7] = system: A. acidoterrestris DSM3922 as indicator stain; test: Effect of enzymes on antibacterial activity (stability); type: in vitro ADME, Alicyclobacillus acidoterrestris; design: key to Antibacterial ability after Lipase, α-AMYLASE / Antibacterial ability after Trypsin, pepsin: Antimicrobial activity +: there is a clear inhibition zone.; Antimicrobial activity –: there is no inhibition zone; key to Antibacterial ability after Proteinase K, papain, α-chymotrypsin: −: Antimicrobial activity –: there is no inhibition zone; conditions: enzyme 1.0 mg/mL, 37°C for 30 min, agar well diffusion
Experimental: (§2) The effect of temperature (60, 80, or 100°C) on the activity of purified plantaricin YKX was analyzed within a certain time (10, 20, or 30 min) ([An et al., 2017]). The long-term stability was investigated at 37°C for […] and at 4°C for 3 months ([Yue et al., 2013]). The impact of pH on plantaricin YKX was analyzed by adjusting pH to 2–10 with 1 M HCl and 1 M NaOH solutions and determining residual activities after maintaining at 37°C for 2 h ([Yue et al., 2013]). The effect of enzymes on the antibacterial activity of plantaricin YKX was determined following incubation with enzymes lipase [pH 7.0, 10 mM phosphate-buffered saline (PBS)], α-amylase (pH 7.0, 10 mM PBS), trypsin (pH 7.5, 10 mM PBS), proteinase K (pH 7.5, 50 mM Tris-HCl), papain (pH 7.5, 10 mM PBS), and pepsin (pH 3.0, 0.1 M HCl) at 37°C for 30 min with their optimal pH and a final concentration of 1.0 mg/mL. The enzymes were inactivated by heating at 100°C for 5 min, and the pH was then adjusted to pH 6.0 ([Yue et al., 2013]). Plantaricin YKX without any treatments was employed as a control. Agar well diffusion assay was utilized to determine the antibacterial activity ([Pei et al., 2020]).

[8] = system: E. coli CICC10302 as indicator stain; test: as above; type: in vitro ADME, Escherichia coli; design: key to Antibacterial ability after Lipase, α-AMYLASE / Antibacterial ability after Trypsin, pepsin: Antimicrobial activity +: there is a clear inhibition zone.; Antimicrobial activity –: there is no inhibition zone; key to Antibacterial ability after Proteinase K, papain, α-chymotrypsin: −: Antimicrobial activity –: there is no inhibition zone; conditions: enzyme 1.0 mg/mL, 37°C for 30 min, agar well diffusion
Experimental: as §2

[9] = system: A. acidoterrestris DSM3922 as indicator stain; test: Heat, storage and pH stability, residual antibacterial activity; type: physicochemical, Alicyclobacillus acidoterrestris; design: key to Antibacterial ability after pH 2–7 / Antibacterial ability after 60, 80, and 100°C / Antibacterial ability after 37°C for 14 d / Antibacterial ability after 2 months at 4°C: Antimicrobial activity +: there is a clear inhibition zone.; Antimicrobial activity –: there is no inhibition zone; key to Antibacterial ability after pH 9–10: −: Antimicrobial activity –: there is no inhibition zone; conditions: agar well diffusion
Experimental: as §2

[10] = system: E. coli CICC10302 as indicator stain; test: as above; type: physicochemical, Escherichia coli; design: key to Antibacterial ability after pH 2–7 / Antibacterial ability after 60, 80, and 100°C / Antibacterial ability after 37°C for 14 d / Antibacterial ability after 2 months at 4°C: Antimicrobial activity +: there is a clear inhibition zone.; Antimicrobial activity –: there is no inhibition zone; key to Antibacterial ability after pH 9–10: −: Antimicrobial activity –: there is no inhibition zone; conditions: agar well diffusion
Experimental: as §2

[11] = Heat, storage and pH stability (indicator not given); type: physicochemical
Experimental: as §2

[12] = system: A. acidoterrestris ATCC 3922; test: Kill kinetics (time-killing curves); type: cell-based, Alicyclobacillus acidoterrestris; conditions: for Time within which all cells were inactivated: at the MICs (1 × MIC)
Text: FIGURE 3 Antibacterial activity of plantaricin YKX against A. acidoterrestris.

[13] = system: A. acidoterrestris DSM3922 cells; test: Flow cytometry, propidium iodide uptake (membrane integrity); type: cell-based, Alicyclobacillus acidoterrestris; conditions: 2 × MIC, incubation for 30 min, 45°C, propidium iodide 10 μg/mL
Experimental: Log phase A. acidoterrestris DSM3922 cells were incubated with plantaricin YKX at 0.5×, 1×, or 2× MIC (control: cells treated with PBS) at 45°C for 15 min. Next, they were centrifuged, rinsed, and treated with propidium iodide (10 μg/mL) for 15 min at 45°C ([Gut et al., 2011]). After removing the unbound stain, the fluorescence intensities were analyzed by an AccuriC6 flow cytometer (BD Biosciences, MI, United States). Forty thousand events were acquired per sample and detected at excitation (488 nm) and emission wavelengths (525 nm).

[14] = system: A. acidoterrestris DSM3922 endospores; test: Endospore germination, microscopic counting; type: cell-based, Alicyclobacillus acidoterrestris; conditions: 2 h post-germination treatment, untreated 43.6%
[15] = system: A. acidoterrestris DSM3922; test: Guaiacol production, HPLC; type: cell-based, Alicyclobacillus acidoterrestris; conditions: AAM broth, 45°C, HPLC 275 nm, control 20.6 μg/L
Experimental: A. acidoterrestris DSM3922 was inoculated in AAM broth containing plantaricin YKX at 0.5 ×, 0.7 × or 0.9 × MIC (control without plantaricin YKX) and cultured at 45°C. Samples were tested for OD600 after 24 h. After the samples were centrifuged at 8,000 g at 4°C and passed through 0.22 μm filter membrane, the guaiacol content was determined with an analytical HPLC dual pump Shimadzu LC-20 AB system equipped with UltimateXB-C18 column (4.6 × 250 mm, particle size 5 μm, Kyoto, Japan) ([Lin et al., 2006]). The mobile phase was 30% (v/v) acetonitrile in 0.1% (v/v) formic acid. The column temperature was maintained at 40°C. The mobile phase flow rate was set at 1 mL/min. The detection wavelength was 275 nm.

[16] = system: luxS gene of A. acidoterrestris; test: RT-qPCR, transcription of luxS; type: cell-based, Alicyclobacillus acidoterrestris; conditions: co-cultured at 0.5 × MIC, 0.7 × MIC, and 0.9 × MIC, overnight incubation
Experimental: To verify the effect of plantaricin YKX on the QS system, Real-Time Quantitative PCR (RT-qPCR) was used to detect the transcription level changes of the gene (luxS) encoding a QS signal (Al-2) synthesis enzyme (LuxS) in A. acidoterrestris. The mid-logarithmic phase cells of A. acidoterrestris were treated with plantaricin YKX at 0.5 ×, 0.7 ×, or 0.9 × MIC. After overnight incubation, RNA was extracted according to the Trizol method.
The reverse transcription reaction system (10 μL) contained: Total RNA 2 μL; dNTP 0.5 μL; Random primers 0.5 μL; and distilled water without RNAase 4 μL. All samples were maintained at 70°C for 5 min and then kept immediately in an ice bath. 5X reverse transcription buffer 2 μL, RNAase inhibitor 0.5 μL, and MMLV reverse transcription enzyme 0.5 μL were added immediately. Thus, the reverse transcription conditions were: 30°C for 10 min, 42°C for 1 h, 70°C for 15 min, and 4°C forever. After the reverse transcription reaction, the DNA templates were diluted 5 times and stored at −20°C until used.
PCR reaction included: upstream primer (10 μM) 0.2 μL, downstream primer (10 μM) 0.2 μL, 2 × Ultra SYBR Mixture 5 μL, ddH2O 3.6 μL, DNA templates 1 μL. The PCR reaction parameters were: 95°C for 10 min, 95°C for 15 s, 60°C for 1 min, 40 cycles. Primers (5′-[…]-3′; 5′-[…]-3′) were designed according to the gene sequence of luxS by the Primer 5.0 software.

[17] = system: Clostridium butyricum CICC 10350; conditions: CICC 10350, 24 h
Alicyclobacillus spp. = conditions: literature value; ref Yamazaki et al., 2000; cited from earlier work
Experimental: On the other hand, the MICs of plantaricin YKX and nisin inactivated all cells within 180 min.

[18] = optimal pH (proteinase K pH 7.5 Tris-HCl, papain pH 7.5 PBS)
[19] = pH 7.0, 10 mM PBS, enzyme inactivated 100°C 5 min, pH adjusted to 6.0
[20] = trypsin pH 7.5 10 mM PBS, pepsin pH 3.0 0.1 M HCl
[21] = pH adjusted with 1 M HCl / 1 M NaOH, 37°C for 2 h

KYGNGLSRIFSALK [plantaricin YKX]
MICs [1]: > highest conc. tested | MICs [2]: > highest conc. tested | MICs [3]: > highest conc. tested | MICs [4]: > highest conc. tested | MICs [5]: > highest conc. tested | MICs [6]: > highest conc. tested | Antibacterial ability after Proteinase K, papain, α-chymotrypsin [7, 18]: – | Antibacterial ability after Lipase, α-AMYLASE [7, 19]: + | Antibacterial ability after Trypsin, pepsin [7, 20]: + | Antibacterial ability after Proteinase K, papain, α-chymotrypsin [8, 18]: – | Antibacterial ability after Lipase, α-AMYLASE [8, 19]: + | Antibacterial ability after Trypsin, pepsin [8, 20]: + | Antibacterial ability after 60, 80, and 100°C ([9]; heated for 10, 20, or 30 min): + | Antibacterial ability after 2 months at 4°C ([9]; long-term storage): + | Antibacterial ability after 37°C for 14 d ([9]; long-term storage): + | Antibacterial ability after pH 2–7 [9, 21]: + | Antibacterial ability after pH 9–10 [9, 21]: – | Antibacterial ability after 60, 80, and 100°C ([10]; heated for 10, 20, or 30 min): + | Antibacterial ability after 2 months at 4°C ([10]; long-term storage): + | Antibacterial ability after 37°C for 14 d ([10]; long-term storage): + | Antibacterial ability after pH 2–7 [10, 21]: + | Antibacterial ability after pH 9–10 [10, 21]: – | Antibacterial activity after storage ([11]; 3 months at 4°C, agar well diffusion): did not alter its antibacterial activity | pH at which the activity was lost ([11]; 37°C for 2 h at adjusted pH, residual activity by agar well diffusion): 9.0 | Antibacterial activity after storage ([11]; 37°C for up to 14 days, agar well diffusion): did not alter its antibacterial activity | pH range in which active (abstract) ([11]; as stated in the abstract): 3–8 | Heat stability, activity after heating ([11]; heating at 60, 80, or 100°C (10, 20, or 30 min), agar well diffusion): retaining activity | Time within which the number of cells was substantially decreased ([12]; 2 MIC): ≤ 30 min | Time within which all cells were inactivated [12]: ≤ 180 min | Proportion of PI-stained cells [13]: 91.6% | Germination rate of spores ([14]; 0.5 × MIC): 55.4% | Germination rate of spores ([14]; 0.7 × MIC): 70.5% | Germination rate of spores ([14]; 0.9 × MIC): 81.7% | Production of guaiacol ([15]; 0.5 × MIC): 16.8 µg/L | Production of guaiacol ([15]; 0.7 × MIC): 10.1 µg/L | Production of guaiacol ([15]; 0.9 × MIC): 8.9 µg/L | Expression of the luxS gene [16]: increased significantly | MICs [17]: 32 µg/mL

nisin: typical class I (lanthionine-based) bacteriocin, > 90% pure, J & K Chemical Technology (I[Dhb]SI[Dha]LCTPGCKTGALMGCNMKTATCHCSIHV[Dha]K; bridge 23-26, 13-19, 8-11, 25-28, 3-7; not fully specified (residues 3, 8, 13, 23, 25, bridges); UniProt P13068 24-57, looked up) [reference compound]
Time within which all cells were inactivated [12]: ≤ 180 min | Expression of the luxS gene [16]: did not show a similar function | MIC (Alicyclobacillus spp.): 16 to 32 µg/mL
